Consider 20 compounds from ChEMBL document CHEMBL1909046, “DrugMatrix in vitro pharmacology data”.

Test [1] is described as follows: DRUGMATRIX: Calcium Channel Type L, Benzothiazepine radioligand binding (ligand: [3H] Diltiazem). It counts as cell membranes, Rattus norvegicus, Wistar, Brain, Membrane. The note with it: Not Active = under 50% inhibition at 10 µM.
The nature of test [2]: DRUGMATRIX: Serotonin (5-Hydroxytryptamine) 5-HT3 radioligand binding (ligand: [3H] GR-65630). In kind it is cell membranes, Membrane. The note with it: hek293; Not Active = under 50% inhibition at 10 µM.
The nature of test [3]: DRUGMATRIX: Tumor Necrosis Factor (TNF), Non-Selective radioligand binding (ligand: [125I] TNF-alpha). The note with it: u-937; Not Active = under 50% inhibition at 10 µM. In kind it is cell membranes, Membrane.
The target in test [4] is C-C chemokine receptor type 2 (Homo sapiens, UniProt P41597). In kind it is cell membranes, CHO-K1, Membrane. Note: in other assays of this panel Not Active means under 50% inhibition at 10 µM.
Test [5] deals with C-C chemokine receptor type 5 (Homo sapiens, UniProt P51681). It counts as cell membranes, Membrane. To be noted: hek293.
Test [6] addresses T1, Caspase-1 (Homo sapiens, UniProt P29466).
T1 sequence (P29466 whole entry): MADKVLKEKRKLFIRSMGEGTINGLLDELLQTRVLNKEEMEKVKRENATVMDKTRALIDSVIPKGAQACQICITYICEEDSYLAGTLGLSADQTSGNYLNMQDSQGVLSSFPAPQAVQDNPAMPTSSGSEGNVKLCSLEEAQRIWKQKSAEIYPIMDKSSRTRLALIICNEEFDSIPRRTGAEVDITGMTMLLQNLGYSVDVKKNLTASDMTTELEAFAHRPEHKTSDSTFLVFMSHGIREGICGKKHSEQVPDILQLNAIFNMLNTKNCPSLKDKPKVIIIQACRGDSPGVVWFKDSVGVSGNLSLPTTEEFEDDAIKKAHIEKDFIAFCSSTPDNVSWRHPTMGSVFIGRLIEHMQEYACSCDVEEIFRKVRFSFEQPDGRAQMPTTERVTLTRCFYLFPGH
Further details: species or system Escherichia coli.

C-C chemokine receptor type 5, sequence (P51681 whole entry): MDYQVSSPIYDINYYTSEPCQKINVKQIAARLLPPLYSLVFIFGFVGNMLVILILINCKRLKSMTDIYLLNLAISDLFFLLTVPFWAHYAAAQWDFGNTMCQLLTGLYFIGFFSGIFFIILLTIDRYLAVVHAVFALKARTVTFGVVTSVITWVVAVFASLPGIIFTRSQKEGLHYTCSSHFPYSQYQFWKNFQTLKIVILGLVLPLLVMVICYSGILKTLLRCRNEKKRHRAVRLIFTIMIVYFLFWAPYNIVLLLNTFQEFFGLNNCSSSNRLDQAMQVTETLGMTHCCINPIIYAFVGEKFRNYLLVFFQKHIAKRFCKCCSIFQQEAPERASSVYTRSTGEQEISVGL
C-C chemokine receptor type 2, sequence (P41597 whole entry): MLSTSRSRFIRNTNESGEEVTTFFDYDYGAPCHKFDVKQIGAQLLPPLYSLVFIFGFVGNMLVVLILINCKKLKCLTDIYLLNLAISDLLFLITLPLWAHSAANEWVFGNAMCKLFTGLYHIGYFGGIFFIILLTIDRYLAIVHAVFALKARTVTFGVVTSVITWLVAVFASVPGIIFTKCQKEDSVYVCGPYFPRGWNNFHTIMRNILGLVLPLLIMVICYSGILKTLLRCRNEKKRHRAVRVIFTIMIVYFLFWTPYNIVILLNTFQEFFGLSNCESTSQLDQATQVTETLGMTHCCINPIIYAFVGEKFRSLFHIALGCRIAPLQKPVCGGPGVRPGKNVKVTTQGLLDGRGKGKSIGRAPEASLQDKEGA

As a reminder, the IC50 is the concentration that inhibits the measured activity by half. Broadly, the Ki is the equilibrium dissociation constant of an inhibitor or competing ligand from its target. For `CC(C)(C)NC(=O)[C@@H]1C[C@@H]2CCCC[C@@H]2CN1C[C@@H](O)[C@H](Cc1ccccc1)NC(=O)[C@H](CC(N)=O)NC(=O)c1ccc2ccccc2n1`, the IC50 in test [1] (read-out: IC50) is 10.9 µM; in test [2], “Not Active”; in test [3], “Not Active”; in test [4] (cho-k1), “Not Active”; in test [5] it was “Not Active”; in test [6], “Not Active”. The Ki in test [1] (read-out: Ki) was 9.69 µM; in test [2], “Not Active”; in test [3], “Not Active”.

Turning to `CC(=O)[C@@]1(O)CC[C@H]2[C@@H]3C[C@H](C)C4=CC(=O)CC[C@]4(C)[C@H]3CC[C@@]21C`, the IC50 entry in test [1], in test [2], in test [3], in test [4] (cho-k1), in test [5] and in test [6] was “Not Active” each time. Also, the Ki result in test [1], in test [2] and in test [3] was “Not Active” in each case.

Turning to `N[C@@H](Cc1ccc(N(CCCl)CCCl)cc1)C(=O)O`, the IC50 entry in test [1], in test [2], in test [3], in test [4] (cho-k1), in test [5] and in test [6] was “Not Active” throughout. Also, the inhibition constant (Ki) entry in test [1], in test [2] and in test [3] was “Not Active” each time.

`CCCCc1oc2ccccc2c1C(=O)c1cc(I)c(OCCN(CC)CC)c(I)c1` [AMIODARONE]: the values for the IC50 in test [4] (read-out: IC50), in test [5] and in test [6] were 11.1 µM, “Not Active” and “Not Active”, respectively. The inhibition constant Ki in test [4] (read-out: Ki) is 4.28 µM.

As for `OCCN(CCO)c1nc(N2CCCCC2)c2nc(N(CCO)CCO)nc(N3CCCCC3)c2n1` [DIPYRIDAMOLE], the IC50 entry in test [1], in test [2], in test [3], in test [4] (cho-k1), in test [5] and in test [6] was “Not Active” throughout. Also, the Ki entry in test [1], in test [2] and in test [3] was “Not Active” in each case.

Regarding `Cc1oncc1C(=O)Nc1ccc(C(F)(F)F)cc1` [LEFLUNOMIDE], the concentration for half-maximal inhibition (IC50) entry in test [1], in test [2], in test [3], in test [4] (cho-k1), in test [5] and in test [6] was “Not Active” in each case. The Ki entry in test [1], in test [2] and in test [3] was “Not Active” each time.

As to `c1ccc([C@H]2CN3CCSC3=N2)cc1` [LEVAMISOLE], the concentration for half-maximal inhibition (IC50) entry in test [1], in test [2], in test [3], in test [4] (cho-k1), in test [5] and in test [6] was “Not Active” each time. In addition, the Ki entry in test [1], in test [2] and in test [3] was “Not Active” each time.

Turning to `N[C@@H](Cc1ccc(O)c(O)c1)C(=O)O` [LEVODOPA], the IC50 entry in test [1], in test [2], in test [3], in test [4] (cho-k1), in test [5] and in test [6] was “Not Active” each time. For the same compound, the Ki entry in test [1], in test [2] and in test [3] was “Not Active” throughout.

`N[C@@H](Cc1cc(I)c(Oc2ccc(O)c(I)c2)c(I)c1)C(=O)O` [LIOTHYRONINE]: the IC50 result in test [4] (cho-k1), in test [5] and in test [6] was “Not Active” in each case.

With `O=NN(CCCl)C(=O)NC1CCCCC1` [LOMUSTINE], the IC50 result in test [1], in test [2], in test [3], in test [4] (cho-k1), in test [5] and in test [6] was “Not Active” throughout. The inhibitory constant (Ki) result in test [1], in test [2] and in test [3] was “Not Active” throughout.

Take `CCOC(=O)N1CCC(=C2c3ccc(Cl)cc3CCc3cccnc32)CC1` [LORATADINE]: the IC50 entry in test [1], in test [2], in test [3], in test [4] (cho-k1), in test [5] and in test [6] was “Not Active” throughout. The inhibition constant (Ki) result in test [1], in test [2] and in test [3] was “Not Active” throughout.

In the case of `Cn1ccnc1S` [METHIMAZOLE], the IC50 entry in test [1], in test [2], in test [3], in test [4] (cho-k1), in test [5] and in test [6] was “Not Active” throughout. For the same compound, the Ki result in test [1], in test [2] and in test [3] was “Not Active” throughout.

`CC[C@@H](CO)NC(=O)[C@@H]1C=C2c3cccc4[nH]cc(c34)C[C@H]2N(C)C1` [METHYLERGONOVINE]: the IC50 entry in test [1], in test [3], in test [4] (cho-k1), in test [5] and in test [6] was “Not Active” each time. In addition, the Ki entry in test [1] and in test [3] was “Not Active” throughout.

As to `COc1nc(C)nc(Cl)c1NC1=NCCN1` [MOXONIDINE], the 50% inhibitory concentration (IC50) entry in test [1], in test [2], in test [3], in test [4] (cho-k1), in test [5] and in test [6] was “Not Active” in each case. For the same compound, the inhibition constant Ki result in test [1], in test [2] and in test [3] was “Not Active” each time.

On to `COc1c(C)c2c(c(O)c1C/C=C(\C)CCC(=O)O)C(=O)OC2` [MYCOPHENOLIC ACID], for which the IC50 result in test [1], in test [2], in test [3], in test [4] (cho-k1), in test [5] and in test [6] was “Not Active” throughout. Further, the Ki entry in test [1], in test [2] and in test [3] was “Not Active” in each case.

As for `O=c1ncn2nc(Sc3ccc(F)cc3F)ccc2c1-c1c(Cl)cccc1Cl` [NEFLAMAPIMOD], the IC50 result in test [1], in test [2], in test [3], in test [4] (cho-k1), in test [5] and in test [6] was “Not Active” throughout. The Ki result in test [1], in test [2] and in test [3] was “Not Active” each time.

Take `CN1CCN(CCCN2c3ccccc3Sc3ccc(Cl)cc32)CC1` [PROCHLORPERAZINE]: the IC50 result in test [4] (cho-k1), in test [5] and in test [6] was “Not Active” each time.

Consider `Cc1nc2n(c(=O)c1CCN1CCC(c3noc4cc(F)ccc34)CC1)CCCC2` [RISPERIDONE], for which the IC50 entry in test [4] (cho-k1), in test [5] and in test [6] was “Not Active” each time.

On to `CC/C(=C(\c1ccccc1)c1ccc(OCCN(C)C)cc1)c1ccccc1` [TAMOXIFEN], for which the half-inhibitory concentration (IC50) entry in test [4] (cho-k1), in test [5] and in test [6] was “Not Active” throughout.

`CC(C)N1CCN(c2ccc(OCC3COC(Cn4cncn4)(c4ccc(Cl)cc4Cl)O3)cc2)CC1` (configuration not stated) [TERCONAZOLE]: the IC50 was 3.01 µM in test [1] (read-out: IC50); “Not Active” in test [2]; “Not Active” in test [4] (cho-k1); “Not Active” in test [5]; “Not Active” in test [6]. The Ki in test [1] (read-out: Ki) was 2.67 µM; in test [2], “Not Active”.
